Experimental data taken from PMC10518257 (Nature Cancer, 2023).
Where “and” joins values, the source holds several entries; their conditions need not be identical. Identical values can stand only once. Like-named read-outs stand apart in the source and are kept apart here.

Legend:
[1] = Animal weight of tumor-bearing mice; conditions: NIH-3T3-CCDC6::RET xenografts
LUAD-0087AS2 PDX = experiment: PDX efficacy study; conditions: for Change in tumor volume (% from base line): Fig. 6a LUAD-0087AS2; for Change in tumor volume (% from base line) / Tumor volume: individual animals; for Area Under Curve Mean: Fig. 6a LUAD-0087AS2 tumor growth; for Tumor volume: LUAD-0087AS2
MMNK1 cholangiocytes = experiment: Growth inhibition (alamarBlue, 96 h); assay type: cell-based, human; conditions: MMNK, replicates
TT cells (RET C634W) = experiment: Dose-response western blotting, EC50 for inhibition of protein phosphorylation; assay type: cell-based; conditions: Homo sapiens
[2] = test system: Ba/F3 cells expressing KIF5B–RET^V804M; experiment: Growth inhibition assay in Ba/F3 cells (CellTiter-Glo, 72 h); assay type: cell-based; conditions: replicate sets
[3] = test system: LUAD-0002AS1 cells (KIF5B::RET); experiment: Dose-response western blotting, EC50 for inhibition of protein phosphorylation; assay type: cell-based; conditions: Homo sapiens, LUAD-0002AS1, 2 h, densitometry
Ba/F3-RET^M918T = experiment: Growth inhibition assay in Ba/F3 cells (CellTiter-Glo, 72 h); assay type: cell-based; conditions: Mus musculus, BaF3, 72 h, read-out: GI50 value (Mean ± SD), Ba/F3-RET^M918T, CellTiter-Glo, 72 h
[4] = test system: HBECp53-RET cells (CCDC6-RET fusion); experiment: Growth inhibition (alamarBlue, 96 h); assay type: cell-based, human; conditions: for raw viability signal (Source Data Fig. 3b-c): HBEC-RET, replicate sets
LC-2/ad cells = experiment: Growth inhibition (alamarBlue, 96 h); assay type: cell-based, human; conditions: for raw viability signal (Source Data Fig. 3b-c): LC-2/Ad, replicate sets

## COCc1ccc(NC(=O)c2c(C#CCN3CCOCC3)n(C3(C)CC3)c3ncnc(N)c23)cc1 [Vepafestinib, 4-amino-N-[4-(methoxymethyl)phenyl]-7-(1-methylcyclopropyl)-6-[3-(morpholin-4-yl)prop-1-yn-1-yl]-7H-pyrrolo[2,3-d]pyrimidine-5-carboxamide]
[1]; 25 mg/kg BID, day 2, 25 mg/kg
  Animal Weight: 23 g and 21 g and 22 g
[1]; 25 mg/kg BID, day 5, 25 mg/kg
  Animal Weight: 23 g and 22 g and 24 g
[1]; 25 mg/kg BID, day 8, 25 mg/kg
  Animal Weight: 23 g and 22 g
[1]; 25 mg/kg QD, day 0, 25 mg/kg
  Animal Weight: 24 g and 22 g and 23 g and 21 g
[1]; 25 mg/kg QD, day 2, 25 mg/kg
  Animal Weight: 25 g and 24 g and 22 g
[1]; 25 mg/kg QD, day 5, 25 mg/kg
  Animal Weight: 22 g and 23 g and 24 g
[1]; 25 mg/kg QD, day 8, 25 mg/kg
  Animal Weight: 25 g and 23 g and 24 g
[1]; 50 mg/kg BID, day 0, 50 mg/kg
  Animal Weight: 22 g and 19 g and 21 g
[1]; 50 mg/kg BID, day 2, 50 mg/kg
  Animal Weight: 20 g and 24 g and 23 g and 21 g and 22 g
[1]; 50 mg/kg BID, day 5, 50 mg/kg
  Animal Weight: 21 g and 24 g and 23 g and 20 g
[1]; 50 mg/kg BID, day 8, 50 mg/kg
  Animal Weight: 21 g and 23 g and 24 g
[1]; 50 mg/kg QD, day 0, 50 mg/kg
  Animal Weight: 22 g and 21 g
[1]; 50 mg/kg QD, day 2, 50 mg/kg
  Animal Weight: 24 g and 23 g
[1]; 50 mg/kg QD, day 5, 50 mg/kg
  Animal Weight: 23 g and 24 g
[1]; 50 mg/kg QD, day 8, 50 mg/kg
  Animal Weight: 24 g and 25 g
[1]; 100 mg/kg QD, day 0, 100 mg/kg
  Animal Weight: 22 g and 21 g and 20 g and 19 g
[1]; 100 mg/kg QD, day 2, 100 mg/kg
  Animal Weight: 23 g and 22 g and 19 g
[1]; 100 mg/kg QD, day 5, 100 mg/kg
  Animal Weight: 23 g and 22 g and 24 g and 21 g
[1]; 100 mg/kg QD, day 8, 100 mg/kg
  Animal Weight: 23 g and 22 g and 24 g and 21 g
LUAD-0087AS2 PDX; 50 mg/kg BID
  Change in tumor volume (% from base line): 87.879% and 58.129% and 44.45% and -5.144% and -25.229%
  Area Under Curve Mean: 607.7
LUAD-0087AS2 PDX; 100 mg/kg QD
  Change in tumor volume (% from base line): 17.228% and 8.714% and 8.637% and 6.644% and -4.481%
  Area Under Curve Mean: -475
LUAD-0087AS2 PDX; 50 mg/kg BID, treatment day 14
  Tumor volume: 176.99 and 151.71 and 143.39 and 141.55 and 122.52
LUAD-0087AS2 PDX; 50 mg/kg BID, treatment day 17
  Tumor volume: 184.47 and 160.85 and 154.42 and 148.22 and 128.59
LUAD-0087AS2 PDX; 50 mg/kg BID, treatment day 21
  Tumor volume: 153.78 and 172.55 and 161.49 and 152.64 and 130.54
LUAD-0087AS2 PDX; 50 mg/kg BID, treatment day 24
  Tumor volume: 80.7 and 118.01 and 87.03 and 107.44 and 78.99
LUAD-0087AS2 PDX; 50 mg/kg BID, treatment day 29
  Tumor volume: 140.89 (2×) and 167.28 and 145.47 and 91.61
LUAD-0087AS2 PDX; 50 mg/kg BID, treatment day 32
  Tumor volume: 98.2 and 131.95 and 113.98 and 102.07 and 83.83
LUAD-0087AS2 PDX; 50 mg/kg BID, treatment day 35
  Tumor volume: 98.2 and 165.14 and 137.6 and 146.01 and 86.78
LUAD-0087AS2 PDX; 50 mg/kg BID, treatment day 38
  Tumor volume: 108.88 and 165.14 and 151.71 and 155.09 and 86.78
LUAD-0087AS2 PDX; 50 mg/kg BID, treatment day 42
  Tumor volume: 118.01 and 213.8 and 176.98 and 176.74 and 91.61
LUAD-0087AS2 PDX; 50 mg/kg BID, treatment day 45
  Tumor volume: 118.01 and 222.58 and 176.98 and 181.58 and 91.61
LUAD-0087AS2 PDX; 100 mg/kg QD, treatment day 14
  Tumor volume: 102.07 and 91.61 and 107.17 and 110.58 and 103.77
LUAD-0087AS2 PDX; 100 mg/kg QD, treatment day 17
  Tumor volume: 102.07 and 81.71 and 90.28 and 103.77 (2×)
LUAD-0087AS2 PDX; 100 mg/kg QD, treatment day 21
  Tumor volume: 107.17 (2×) and 113.1 and 118.75 and 114.83
LUAD-0087AS2 PDX; 100 mg/kg QD, treatment day 24
  Tumor volume: 93.59 and 83.07 and 77.95 and 87.03 and 98.2
LUAD-0087AS2 PDX; 100 mg/kg QD, treatment day 29
  Tumor volume: 100.37 and 99.78 and 80.89 and 91.87 and 98.2
LUAD-0087AS2 PDX; 100 mg/kg QD, treatment day 32
  Tumor volume: 103.92 and 108.88 and 90.28 and 95.24 and 107.17
LUAD-0087AS2 PDX; 100 mg/kg QD, treatment day 35
  Tumor volume: 109.36 and 120.29 and 95.03 and 107.44 and 110.58
LUAD-0087AS2 PDX; 100 mg/kg QD, treatment day 38
  Tumor volume: 109.36 and 120.29 and 114.83 and 118.75 and 122.12
LUAD-0087AS2 PDX; 100 mg/kg QD, treatment day 42
  Tumor volume: 109.36 and 126.29 and 116.65 and 126.64 and 138.88
LUAD-0087AS2 PDX; 100 mg/kg QD, treatment day 45
  Tumor volume: 109.36 and 126.29 and 120.64 and 126.64 and 138.88
MMNK1 cholangiocytes; 0.01 nM
  raw viability signal (Source Data Fig. 3b-c): 15390 and 15865.6
MMNK1 cholangiocytes; 0.1 nM
  raw viability signal (Source Data Fig. 3b-c): 14815.4 and 16483.3
MMNK1 cholangiocytes; 1 nM
  raw viability signal (Source Data Fig. 3b-c): 13973.1 and 15595
MMNK1 cholangiocytes; 10 nM
  raw viability signal (Source Data Fig. 3b-c): 13948.4 and 14647.6
MMNK1 cholangiocytes; 100 nM
  raw viability signal (Source Data Fig. 3b-c): 13576.5 and 14248.6
MMNK1 cholangiocytes; 1000 nM
  raw viability signal (Source Data Fig. 3b-c): 9712.9 and 10190.9
MMNK1 cholangiocytes; 10000 nM
  raw viability signal (Source Data Fig. 3b-c): 13883.8 and 13507.1
TT cells (RET C634W); read-out: EC50 for Inhibition of Protein Phosphorylation (95% CI), AKT S473, 2 h, densitometry
  EC50: 2.4 nM
TT cells (RET C634W); read-out: EC50 for Inhibition of Protein Phosphorylation (95% CI), ERK1/2 T202/Y204, 2 h, densitometry
  EC50: 0.3 nM
TT cells (RET C634W); read-out: EC50 for Inhibition of Protein Phosphorylation (95% CI), MEK1/2 S217/S221, 2 h, densitometry
  EC50: 2.1 nM
TT cells (RET C634W); read-out: EC50 for Inhibition of Protein Phosphorylation (95% CI), P70 RSK T421/S424, 2 h, densitometry
  EC50: 1.1 nM
TT cells (RET C634W); read-out: EC50 for Inhibition of Protein Phosphorylation (95% CI), RET Y905, 2 h, densitometry
  EC50: 0.3 nM
TT cells (RET C634W); read-out: EC50 for Inhibition of Protein Phosphorylation (95% CI), S6RP S235/S236, 2 h, densitometry
  EC50: 0.7 nM
[2]; Ba/3-KIF5B-RET-V804M
  GI50: 38.7 nM
[2]; Mus musculus, BaF3, Ba/3-KIF5B-RET-V804M
  GI50: 44.8 nM
[3]; read-out: EC50 for Inhibition of Protein Phosphorylation (95% CI), AKT S473
  EC50: 1.4 nM
[3]; read-out: EC50 for Inhibition of Protein Phosphorylation (95% CI), ERK1/2 T202/Y204
  EC50: 0.9 nM
[3]; read-out: EC50 for Inhibition of Protein Phosphorylation (95% CI), MEK1/2 S217/S221
  EC50: 1.5 nM
[3]; read-out: EC50 for Inhibition of Protein Phosphorylation (95% CI), P70 RSK T421/S424
  EC50: 4.9 nM
[3]; read-out: EC50 for Inhibition of Protein Phosphorylation (95% CI), RET Y905
  EC50: 1.3 nM
[3]; read-out: EC50 for Inhibition of Protein Phosphorylation (95% CI), S6RP S235/S236
  EC50: 15 nM
Ba/F3-RET^M918T
  GI50: 1.94 ± 0.88 nM
[4]; 0.01 nM
  raw viability signal (Source Data Fig. 3b-c): 18957.1 and 8244.84 and 10678.9 and 16541.7
[4]; 0.1 nM
  raw viability signal (Source Data Fig. 3b-c): 17482 and 10966 and 10873.4 and 16651.3
[4]; 1 nM
  raw viability signal (Source Data Fig. 3b-c): 17298.8 and 10767.5 and 11130.6 and 16468.7
[4]; 10 nM
  raw viability signal (Source Data Fig. 3b-c): 5536.96 and 10230.4 and 9156.41 and 16208.5
[4]; 100 nM
  raw viability signal (Source Data Fig. 3b-c): 4544.29 and 6087.71 and 3084.29 and 6640.5
[4]; 1000 nM
  raw viability signal (Source Data Fig. 3b-c): 2966.02 and 1973.98 and 3130.94 and 5863.55
[4]; 10000 nM
  raw viability signal (Source Data Fig. 3b-c): 3124.48 and 1006.63 and 1869.57 and 4627.96
[4]; Homo sapiens, 96 h, read-out: IC50 for Inhibition of Growth (95% CI), HBECp53-RET, alamarBlue, 96 h
  IC50: 65 nM
LC-2/ad cells; Homo sapiens, LC-2-ad, 96 h, read-out: IC50 for Inhibition of Growth (95% CI)
  IC50: 15 nM
LC-2/ad cells; 0.01 nM
  raw viability signal (Source Data Fig. 3b-c): 13380.1 and 23532.8
LC-2/ad cells; 0.1 nM
  raw viability signal (Source Data Fig. 3b-c): 13890.3 and 20497.1
LC-2/ad cells; 1 nM
  raw viability signal (Source Data Fig. 3b-c): 12571.5 and 21458.9
LC-2/ad cells; 10 nM
  raw viability signal (Source Data Fig. 3b-c): 6299.39 and 16710
LC-2/ad cells; 100 nM
  raw viability signal (Source Data Fig. 3b-c): 4794.24 and 3373.89
LC-2/ad cells; 1000 nM
  raw viability signal (Source Data Fig. 3b-c): 5340.72 and 2243.82
LC-2/ad cells; 10000 nM
  raw viability signal (Source Data Fig. 3b-c): 3810.66 and 1837.55
